Test results taken from ChEMBL document CHEMBL5346874, “New antiplasmodial 4-amino-thieno[3,2-d]pyrimidines with improved intestinal permeability and microsomal stability” (Eur J Med Chem, 2023).
pEC50, pIC50: −log10 of the molar value.

Experiments:
Plasmodium falciparum = experiment: Antiplasmodial activity against blood stage Plasmodium falciparum K1 assessed as reduction in parasite growth incubated for 72 hrs by SYBR Green I fluorescence based method; format: functional, organism-based
Plasmodium berghei = experiment: Antimalarial activity against hepatic stage of Plasmodium berghei sporozoites GFP ANKA incubated for 3 hrs followed by replacement with fresh media for every 24 hrs by immunostaining analysis; format: functional, organism-based
[1] = (§1) Cytotoxicity against cynomolgus monkey Primary hepatocyte assessed as cell viability; format: toxicity, cell-based, Macaca fascicularis; conditions: primary hepatocytes
[2] = Selectivity index, ratio of CC50 for against Macaca fascicularis Primary hepatocyte to EC50 for hepatic stage of Plasmodium berghei sporozoites GFP ANKA; format: toxicity; conditions: cynomolgus monkey, primary hepatocytes; read-out: Ratio CC50/EC50
[3] = Solubility of the compound in PBS buffer at 1 mg incubated for 10 mins by HPLC analysis; format: physicochemical
[4] = Chromatographic hydrophobicity index, log D of the compound at pH 7.4 by HPLC analysis; format: physicochemical
[5] = Effective permeability of compound at pH 7.4 incubated for 4 hrs by PAMPA-GIT assay; format: ADME; conditions: read-out: Peff
[6] = Metabolic stability in CD-1 mouse liver microsomes assessed as half life at pH 7.4 measured upto 40 mins in presence of NADP; format: ADME, Microsome
[7] = Metabolic stability in CD-1 mouse liver microsomes assessed as intrinsic clearance at pH 7.4 measured upto 40 mins in presence of NADP; format: ADME, Microsome; conditions: read-out: CLH
Hepatocyte = experiment: as §1; format: toxicity, cell-based, Macaca fascicularis; conditions: hepatocytes
[8] = Effective permeability of compound at pH 5 incubated for 4 hrs by PAMPA-GIT assay; format: ADME; conditions: read-out: Peff
[9] = Effective permeability of compound at pH 6.0 incubated for 4 hrs by PAMPA-GIT assay; format: ADME; conditions: read-out: Peff
[10] = biological target: Voltage-gated inwardly rectifying potassium channel KCNH2 (Homo sapiens, UniProt Q12809); experiment: Inhibition of human ERG incubated for 4 hrs by fluorescence polarization assay; format: toxicity
[11] = Plasmodium falciparum, K1, 72 h

Sequence of Voltage-gated inwardly rectifying potassium channel KCNH2 (Q12809 whole entry): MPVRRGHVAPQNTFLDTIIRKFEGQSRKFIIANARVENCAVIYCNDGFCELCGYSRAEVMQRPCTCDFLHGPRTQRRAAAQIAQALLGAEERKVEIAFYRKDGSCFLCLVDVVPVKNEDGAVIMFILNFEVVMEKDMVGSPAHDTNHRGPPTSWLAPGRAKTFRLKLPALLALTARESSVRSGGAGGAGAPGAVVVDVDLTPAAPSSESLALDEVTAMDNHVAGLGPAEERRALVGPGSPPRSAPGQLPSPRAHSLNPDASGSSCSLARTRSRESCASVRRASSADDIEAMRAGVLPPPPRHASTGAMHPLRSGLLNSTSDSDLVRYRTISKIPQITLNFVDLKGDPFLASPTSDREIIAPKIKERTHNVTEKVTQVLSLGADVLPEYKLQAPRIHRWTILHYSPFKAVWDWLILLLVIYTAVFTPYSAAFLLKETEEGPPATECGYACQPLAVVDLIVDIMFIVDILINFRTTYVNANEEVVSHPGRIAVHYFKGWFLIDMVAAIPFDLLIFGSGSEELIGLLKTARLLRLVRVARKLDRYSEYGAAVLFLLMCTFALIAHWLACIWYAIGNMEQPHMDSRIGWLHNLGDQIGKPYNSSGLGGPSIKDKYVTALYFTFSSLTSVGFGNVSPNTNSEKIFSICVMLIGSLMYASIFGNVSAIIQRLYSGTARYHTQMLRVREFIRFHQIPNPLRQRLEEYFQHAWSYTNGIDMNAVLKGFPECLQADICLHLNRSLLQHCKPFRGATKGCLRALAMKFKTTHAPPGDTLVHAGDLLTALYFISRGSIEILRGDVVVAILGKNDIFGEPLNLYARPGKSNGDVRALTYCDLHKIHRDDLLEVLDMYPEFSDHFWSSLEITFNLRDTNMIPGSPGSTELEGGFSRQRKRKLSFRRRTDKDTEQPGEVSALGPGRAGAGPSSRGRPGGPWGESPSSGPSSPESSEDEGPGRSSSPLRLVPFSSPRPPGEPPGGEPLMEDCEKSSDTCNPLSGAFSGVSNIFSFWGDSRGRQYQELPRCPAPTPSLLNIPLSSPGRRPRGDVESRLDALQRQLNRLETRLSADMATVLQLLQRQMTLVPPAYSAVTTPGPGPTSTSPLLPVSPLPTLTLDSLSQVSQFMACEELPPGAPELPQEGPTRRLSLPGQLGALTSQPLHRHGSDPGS

SMILES	pEC50 (Plasmodium falciparum; [11])	pEC50 (Plasmodium berghei; Plasmodium berghei, GFP ANKA)	CC50 [1] [µM]	selectivity ratio [2]	further results
Cc1ccc(-c2cc3nc(NC(C)(C)C)[nH]c(=O)c3s2)cc1	6.70	4.61	> 200	> 8.2	–
Cc1ccc(-c2cc3nc(NC(C)(C)C)[nH]c(=O)c3s2)cc1.Cl	–	–	–	–	solubility at 10 min [3]: 7.92 µM; chromatographic logD [4]: 4.1; Papp at 4 h [5]: 0.46 ×10⁻⁶ cm/s; half-life [6]: 11 min; microsomal CLint [7]: 240 µL/min/mg
Cc1ccc(-c2cc3nc(NC(C)(C)C)nc(NC4CCCC4)c3s2)cc1	5.89	–	–	–	–
CCN(CC)CCCNc1nc(NC(C)(C)C)nc2cc(-c3ccc(C)cc3)sc12.Cl.Cl	–	–	–	–	pEC50 (Plasmodium berghei): 4.91; CC50 (Hepatocyte): 27.6 µM; solubility at 10 min [3]: 1400 µM; chromatographic logD [4]: 4.23; Papp at 4 h [8]: 48.9 ×10⁻⁶ cm/s; Papp at 4 h [9]: 46.6 ×10⁻⁶ cm/s; Papp at 4 h [5]: 63.1 ×10⁻⁶ cm/s; half-life [6]: 37 min; microsomal CLint [7]: 61 µL/min/mg; pIC50 [10]: 5.85
Cc1ccc(-c2cc3nc(NC(C)(C)C)nc(N4CCC(C)CC4)c3s2)cc1	6.15	4.45	52.5	1.5	–
Cc1ccc(-c2cc3nc(NC(C)(C)C)nc(N4CCNCC4)c3s2)cc1	5.80	–	–	–	–
Cc1ccc(-c2cc3nc(NC(C)(C)C)nc(N4CCCCC4)c3s2)cc1	5.92	–	–	–	–
CCN(CC)CCNc1nc(NC(C)(C)C)nc2cc(-c3ccc(C)cc3)sc12	6.52	4.84	32.6	2.2	–
CCN(CC)CCNc1nc(NC(C)(C)C)nc2cc(-c3ccc(C)cc3)sc12.Cl.Cl	–	–	–	–	pEC50 (Plasmodium berghei): 4.84; CC50 (Hepatocyte): 59.1 µM; solubility at 10 min [3]: 1140 µM; chromatographic logD [4]: 4.81; Papp at 4 h [8]: 51.2 ×10⁻⁶ cm/s; Papp at 4 h [9]: 52.1 ×10⁻⁶ cm/s; Papp at 4 h [5]: 73.9 ×10⁻⁶ cm/s; half-life [6]: 37 min; microsomal CLint [7]: 63 µL/min/mg; pIC50 [10]: 5.97
Cc1ccc(-c2cc3nc(NC(C)(C)C)nc(N4CCC(NCc5ccc(Br)cc5)CC4)c3s2)cc1	6.15	4.88	20.7	1.6	–
COc1ccc(CNC2CCN(c3nc(NC(C)(C)C)nc4cc(-c5ccc(C)cc5)sc34)CC2)cc1	6.30	4.85	28.6	2	–
Cc1ccc(CSc2cnc(NC(C)(C)C)nc2N2CCC(NCc3cccc(Cl)c3)CC2)cc1	5.92	–	–	–	–
Cc1ccc(-c2cc3nc(NC(C)(C)C)nc(N4CCSCC4)c3s2)cc1	5.31	–	–	–	–
Cc1ccc(-c2cc3nc(NC(C)(C)C)nc(N4CCC(NCc5ccccc5)CC4)c3s2)cc1	6.15	4.79	43.6	2.7	–
Cc1ccc(-c2cc3nc(NC(C)(C)C)nc(NCCCN(C)C)c3s2)cc1.Cl.Cl	–	–	–	–	pEC50 (Plasmodium falciparum): 6.70; pEC50 (Plasmodium berghei): 4.84; CC50 (Hepatocyte): 35.5 µM; solubility at 10 min [3]: 1990 µM; chromatographic logD [4]: 4.29; Papp at 4 h [8]: 36.2 ×10⁻⁶ cm/s; Papp at 4 h [9]: 47.8 ×10⁻⁶ cm/s; Papp at 4 h [5]: 67.3 ×10⁻⁶ cm/s; half-life [6]: > 40 min; microsomal CLint [7]: 33 µL/min/mg; pIC50 [10]: < 4.00
Cc1ccc(-c2cc3nc(NC(C)(C)C)nc(N4CCN(C)CC4)c3s2)cc1	5.92	–	–	–	–
Cc1ccc(-c2cc3nc(NC(C)(C)C)nc(NCCN(C)C)c3s2)cc1	6.52	4.86	–	1	CC50 (Hepatocyte): 14 µM
Cc1ccc(-c2cc3nc(NC(C)(C)C)nc(N4CCC(NCc5ccc(C(F)(F)F)cc5)CC4)c3s2)cc1	5.77	–	–	–	–

SMILES	pEC50 (Plasmodium falciparum; [11])	pEC50 (Plasmodium berghei; Plasmodium berghei, GFP ANKA)	CC50 [1] [µM]	selectivity ratio [2]	further results
Cc1ccc(-c2cc3nc(NC(C)(C)C)nc(N4CCCC4)c3s2)cc1	6.05	4.84	17.5	1.2	–
Cc1ccc(-c2cc3nc(NC(C)(C)C)nc(N4CCC(NCc5cccc(C(F)(F)F)c5)CC4)c3s2)cc1	5.89	–	–	–	–
Cc1ccc(-c2cc3nc(NC(C)(C)C)nc(N4CCC4)c3s2)cc1	6.15	4.82	25.8	1.7	–
Cc1ccc(CNC2CCN(c3nc(NC(C)(C)C)nc4cc(-c5ccc(C)cc5)sc34)CC2)cc1	6.15	4.81	35.5	2.3	–
Cc1ccc(-c2cc3nc(NC(C)(C)C)nc(NC4CCCCC4)c3s2)cc1	5.60	–	–	–	–
Cc1ccc(-c2cc3nc(NC(C)(C)C)nc(N4CCC(NC(=O)OC(C)(C)C)CC4)c3s2)cc1	5.68	–	–	–	–
Cc1ccc(-c2cc3nc(NC(C)(C)C)nc(N4CCC(NCc5ccc(Cl)cc5)CC4)c3s2)cc1	6.00	4.85	36.1	2.5	–
Cc1ccc(-c2cc3nc(NC(C)(C)C)nc(N4CCC(N)CC4)c3s2)cc1	6.00	4.50	31.6	1	–
Cc1ccc(-c2cc3nc(NC(C)(C)C)nc(NC4CCC4)c3s2)cc1	6.05	5.19	8.8	1.3	–
Cc1ccc(-c2cc3nc(NC(C)(C)C)nc(N4CCOCC4)c3s2)cc1	5.80	–	–	–	–
Cc1ccc(-c2cc3nc(NC(C)(C)C)nc(NCCN(C)C)c3s2)cc1.Cl.Cl	–	–	–	–	pEC50 (Plasmodium falciparum): 6.40; pEC50 (Plasmodium berghei): 4.85; CC50 (Hepatocyte): 32.5 µM; solubility at 10 min [3]: 1640 µM; chromatographic logD [4]: 4.5; Papp at 4 h [8]: 43 ×10⁻⁶ cm/s; Papp at 4 h [9]: 41.1 ×10⁻⁶ cm/s; Papp at 4 h [5]: 64.9 ×10⁻⁶ cm/s; half-life [6]: 37 min; microsomal CLint [7]: 64 µL/min/mg; pIC50 [10]: 5.47
Cc1ccc(-c2cc3nc(NC(C)(C)C)nc(N4CCC(NCc5ccc([N+](=O)[O-])cc5)CC4)c3s2)cc1	6.15	5.14	15.8	2.2	–
CCN(CC)CCCNc1nc(NC(C)(C)C)nc2cc(-c3ccc(C)cc3)sc12	6.70	4.94	25.8	2.2	–
Cc1ccc(-c2cc3nc(NC(C)(C)C)nc(NC4CC4)c3s2)cc1	5.96	–	–	–	–
Cc1ccc(-c2cc3nc(NC(C)(C)C)nc(NCCCN(C)C)c3s2)cc1	6.52	4.82	–	> 6.5	CC50 (Hepatocyte): > 100 µM
CCN(CC)CCCC(C)Nc1ccnc2cc(Cl)ccc12 (stereo not given) [CHLOROQUINE]	6.10	–	–	–	–
C[C@H]1c2cccc(O)c2C(=O)C2=C(O)[C@]3(O)C(=O)C(C(N)=O)=C(O)[C@@H](N(C)C)[C@@H]3[C@@H](O)[C@@H]21 [DOXYCYCLINE]	5.30	–	–	–	–
